Reference: PubChem BioAssay AID2060340 (Molecular Pharmacology Branch, DTP, NCI, 2025)
Where “and” joins values, the source holds several entries; their conditions need not be identical. Identical values can stand only once.

System: 349418-098-R-PDC spheroids, viability, % test/control
Test: Anticancer human tumor 349418-098-R-PDC patient-derived lung adenocarcinoma cell line growth inhibition [IpAb]
Details: spheroids with HUVEC and MSC; for viability, T/C: stronger effect = lower value; active means viability on the fitted dose curve at most 10% of control; inactive means the rest
From the text: Combinatorial screen of targeted agents with ipatasertib and abemaciclib in multi-cell type tumor spheroids
A high-throughput screen of multi-cell type tumor spheroids was designed to identify active combinations of targeted small molecules and ipatasertib or abemaciclib. Complex spheroids include a stromal component modeled by human endothelial cells (HUVEC) and fibroblasts modeled by human mesenchymal stem cells (MSCs). The concentration ranges selected for each drug and investigational agent were based upon clinically achievable concentrations if the clinical Cmax of the agent was known.
Compounds. The drugs and investigational agents: ipatasertib (NSC767898), abemaciclib(NSC768073), selumetinib (NSC741078), trametinib (758246), adavosertib (NSC754352), everolimus (NSC733504), sapanisertib (NSC764658), vemurafenib (NSC761431), venetoclax (NSC766270), copanlisib (NSC809693), apelisib (NSC765974), palbociblib (NSC758247), vemurafenib (NSC761431), dabrafenib (NSC764134), ravoxertinib (NSC781343), BMS-387032 (NSC767048), sotorasib (NSC818433), talazoparib (NSC767125) and afursertib (NSC778305), were obtained from the National Cancer Institute (NCI) Developmental Therapeutics Program Chemical Repository. The FDA-approved anticancer drug set is available from the NCI Developmental Therapeutics Program. […] The stock solutions were prepared in dimethyl sulfoxide (DMSO, Sigma-Aldrich, St. Louis, MO, cat. D2650) at 800-fold the tested concentration and stored at -70 degrees C prior to their use. All drugs and investigational agents were tested over a range starting from a high concentration at or near the clinical Cmax and decreasing in half-log increments. If the clinical Cmax for an agent had not been determined, the highest concentration tested was 10 microM.
NCI60 Cell Culture. NCI60 cell lines were obtained from the NCI Developmental Therapeutics Program Tumor Repository. For each lot of cells, the Repository performed Applied Biosystems AmpFLSTR Identifiler testing with PCR amplification to confirm consistency with the published Identifier STR profile for each cell line. Cells were kept in continuous culture for no more than 20 passages. The optimal seeding densities for each of the cell lines at each time point assessed were determined prior to performing the concentration response studies. Briefly, the NCI60 human tumor lines were grown as monolayers in RPMI 1640 medium supplemented with 10% FBS and 2 mmol/L L-glutamine.
An additional 9 lines were from the NCI60 cell line panel including MDA-MB-231 breast carcinoma, MDA-MB-468 breast carcinoma, MCF7 breast carcinoma, Hs578T breast carcinoma, MALME-3M melanoma, SK-MEL-2 melanoma, SK-OV-3 ovarian carcinoma, DU-145 prostate carcinoma, PC-3 prostate carcinoma, all cell lines along with major genetic alterations are listed on Table 2. Pooled donor human umbilical vein endothelial cells (HUVEC, Lonza, cat. CC-2519) and human mesenchymal stem cells (hMSC, Lonza, cat. PT-2501) were purchased from Lonza (Walkersville, MD).
PDMR cell lines were grown in complete medium (DC medium): Dulbecco's modified Eagle's medium (DMEM)/F12 supplemented with 5% fetal bovine serum (FBS), 2 mM L-glutamine, 100 U/mL penicillin and 100 µg/ml streptomycin, 0.4 µg/ml hydrocortisone, 10 ng/ml epidermal growth factor (EGF) recombinant human protein, 24 µg/mL adenine, and 0.1 mg/mL primocin. During culture from frozen stock vials, PDMR cells were cultured in the same medium containing 10 µM Y-27632 (see Table 3). The PDCs were cultured in complete DMEM/F12 media without 10 microM Y-27632 dihydrochloride for at least two passages prior to the screen. The pooled donor HUVEC and hMSC were cultured in endothelial cell growth medium 2 (PromoCell, Heidelberg, Germany, cat. C-22011) and mesenchymal stem cell growth medium 2 (PromoCell, cat. C-28009), respectively. For all experiments, HUVEC and hMSC were used at passages </=5.
[…]

[1] = curve of first compound, second compound 0.1 µM
[2] = curve of first compound, second compound 0.316 µM
[3] = curve of first compound, second compound 1 µM
[4] = curve of first compound, second compound 3.16 µM
[5] = curve of first compound, second compound 10 µM
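Further: spheroids exposed to compounds for 7 days.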

COc1c(OCCCN2CCOCC2)ccc2c3n(c(=NC(=O)c4cnc(N)nc4)nc12)CCN3 + CC(C)NCC(C(=O)N1CCN(c2ncnc3c2C(C)CC3O)CC1)c1ccc(Cl)cc1
3.97 nM: IC50 [1]
< 3.16 nM: IC50 [2] | IC50 [3] | IC50 [4] | IC50 [5]
inactive: viability, T/C (second compound 0.1 µM, first compound 0.00316 µM) 55.1% | viability, T/C (second compound 0.1 µM, first compound 0.01 µM) 29.2% | viability, T/C (second compound 0.316 µM, first compound 0.00316 µM) 35% | viability, T/C (second compound 0.316 µM, first compound 0.01 µM) 21.2% | viability, T/C (second compound 1 µM, first compound 0.00316 µM) 16.6%
active: viability, T/C (second compound 0.1 µM, first compound 0.0316 µM) 9.62% | viability, T/C (second compound 0.1 µM, first compound 0.1 µM) 5.79% | viability, T/C (second compound 0.1 µM, first compound 0.316 µM) 5.45% | viability, T/C (second compound 0.1 µM, first compound 1 µM) 5.99% | viability, T/C (second compound 0.316 µM, first compound 0.0316 µM) 8.11% | viability, T/C (second compound 0.316 µM, first compound 0.1 µM) 6.04% | viability, T/C (second compound 0.316 µM, first compound 0.316 µM) 5.28% | viability, T/C (second compound 0.316 µM, first compound 1 µM) 5.13% | viability, T/C (second compound 1 µM, first compound 0.01 µM) 9.17% | viability, T/C (second compound 1 µM, first compound 0.0316 µM) 7.4% | viability, T/C (second compound 1 µM, first compound 0.1 µM) 5.13% | viability, T/C (second compound 1 µM, first compound 0.316 µM) 5.24% | viability, T/C (second compound 1 µM, first compound 1 µM) 4.6% | viability, T/C (second compound 3.16 µM, first compound 0.00316 µM) 9.24% | viability, T/C (second compound 3.16 µM, first compound 0.01 µM) 8.35% | viability, T/C (second compound 3.16 µM, first compound 0.0316 µM) 6.17% | viability, T/C (second compound 3.16 µM, first compound 0.1 µM) 4.91% | viability, T/C (second compound 3.16 µM, first compound 0.316 µM) 4.85% | viability, T/C (second compound 3.16 µM, first compound 1 µM) 4.78% | viability, T/C (second compound 10 µM, first compound 0.00316 µM) 6.46% | viability, T/C (second compound 10 µM, first compound 0.01 µM) 6.12% | viability, T/C (second compound 10 µM, first compound 0.0316 µM) 5.32% | viability, T/C (second compound 10 µM, first compound 0.1 µM) 4.15% | viability, T/C (second compound 10 µM, first compound 0.316 µM) 4.39% | viability, T/C (second compound 10 µM, first compound 1 µM) 4.49%

CC(C)(C)c1cnc(CSc2cnc(NC(=O)C3CCNCC3)s2)o1 + CC(C)NCC(C(=O)N1CCN(c2ncnc3c2C(C)CC3O)CC1)c1ccc(Cl)cc1
active: viability, T/C (second compound 0.1 µM, first compound 0.0949 µM) 6.84% | viability, T/C (second compound 0.1 µM, first compound 0.3 µM) 2.85% | viability, T/C (second compound 0.1 µM, first compound 0.949 µM) 2.98% | viability, T/C (second compound 0.1 µM, first compound 3 µM) 2.15% | viability, T/C (second compound 0.316 µM, first compound 0.0949 µM) 5.43% | viability, T/C (second compound 0.316 µM, first compound 0.3 µM) 2.19% | viability, T/C (second compound 0.316 µM, first compound 0.949 µM) 2.77% | viability, T/C (second compound 0.316 µM, first compound 3 µM) 1.75% | viability, T/C (second compound 1 µM, first compound 0.0949 µM) 3.25% | viability, T/C (second compound 1 µM, first compound 0.3 µM) 2.27% | viability, T/C (second compound 1 µM, first compound 0.949 µM) 2.58% | viability, T/C (second compound 1 µM, first compound 3 µM) 2.1% | viability, T/C (second compound 3.16 µM, first compound 0.03 µM) 8.27% | viability, T/C (second compound 3.16 µM, first compound 0.0949 µM) 3.2% | viability, T/C (second compound 3.16 µM, first compound 0.3 µM) 2.2% | viability, T/C (second compound 3.16 µM, first compound 0.949 µM) 2.72% | viability, T/C (second compound 3.16 µM, first compound 3 µM) 2.4% | viability, T/C (second compound 10 µM, first compound 0.00949 µM) 5.95% | viability, T/C (second compound 10 µM, first compound 0.03 µM) 5.37% | viability, T/C (second compound 10 µM, first compound 0.0949 µM) 2.11% | viability, T/C (second compound 10 µM, first compound 0.3 µM) 1.93% | viability, T/C (second compound 10 µM, first compound 0.949 µM) 2.03% | viability, T/C (second compound 10 µM, first compound 3 µM) 1.53%
40.6 nM: IC50 [1]
inactive: viability, T/C (second compound 0.1 µM, first compound 0.00949 µM) 88.9% | viability, T/C (second compound 0.1 µM, first compound 0.03 µM) 65.3% | viability, T/C (second compound 0.316 µM, first compound 0.00949 µM) 45.6% | viability, T/C (second compound 0.316 µM, first compound 0.03 µM) 31.9% | viability, T/C (second compound 1 µM, first compound 0.00949 µM) 22.1% | viability, T/C (second compound 1 µM, first compound 0.03 µM) 15.5% | viability, T/C (second compound 3.16 µM, first compound 0.00949 µM) 9.45%
< 9.49 nM: IC50 [2] | IC50 [3] | IC50 [4] | IC50 [5]

COc1c(OCCCN2CCOCC2)ccc2c3n(c(=NC(=O)c4cnc(N)nc4)nc12)CCN3
active: viability, T/C (compound 0.1 µM) 7.98% and 6.59% | viability, T/C (compound 0.316 µM) 7.2% and 6.31% | viability, T/C (compound 1 µM) 6.67% and 5.78%
inactive: viability, T/C (compound 0.00316 µM) 98.7% and 85.4% | viability, T/C (compound 0.01 µM) 45.2% and 56.9% | viability, T/C (compound 0.0316 µM) 11.5% and 15.2%
9.02 nM and 12.1 nM: IC50 (curve of compound)
